In patent US10501449B2 (priority 2018, dated 2019):

Legend:
hROMK (human Kir1.1) = hROMK (human Kir1.1) (Homo sapiens (Human), UniProt P48048); experiment: cell-based; settings: CHO T-Rex hROMK stable cell line; thallium flux; 10-point concentration response curve; read-out: Human ROMK Th Flux IC50
Protocol: Solutions and reagents: Thallium flux assay was performed using FluxOR kit (F10017, Life Technologies). Loading buffer, assay buffer and stimulus buffer were prepared using kit components. HBSS (Hank's balanced salt solution, Cat#14025-092) was purchased separately from Life Technologies.
To prepare 10 ml of loading buffer: 10 μl of FluxOR dye (reconstituted in DMSO) was first added to 100 μl of powerload concentrate and this mix along with 100 μl of Probenicid (100×) was then added to 9.79 ml of HBSS. Assay buffer (10 ml) was prepared by addition of 2 ml of FluxOR chloride free buffer (5×), 100 μl of Probenicid (100×), and 0.2 ml of Ouabain (13.77 mM) to 7.7 ml of deionized water. Stimulus buffer was composed of 15 mM Tl2SO4, 0.75 mM K2SO4 in FluxOR chloride free buffer (diluted to 1× using deionized water). The final concentration of Tl2SO4 and K2SO4 in the assay plate was 3 mM and 0.15 mM, respectively.
Plating and induction of cells: The CHO T-Rex hROMK (human Kir1.1) stable cell line was maintained in Ham's F12 media supplemented with 10% FBS, 1% Penicillin-Streptomycin, 500 μg/ml Zeocin and 10 μg/ml Blasticidin at 37° C. in a 5% CO2 incubator. One day before the experiment, the cells were dissociated by incubation with Versene solution (15040-066, Life Technologies) for 10 minutes at 37° C. followed by addition of growth media. The cell suspension was centrifuged at 1200 rpm for 5 min. After discarding the supernatant, the cells were resuspended in fresh growth media and cell concentration was determined using a hemocytometer. Next, 0.5 μg/ml of Doxycycline was added to the cell suspension to induce hROMK channel expression and 50 μl (10,000 cells/well) of cell suspension was added to each well of a poly-D lysine coated 384 well black, optically clear bottom plate (6007718, Perkin Elmer). The assay plate was kept at 37° C. in a 5% CO2 incubator.
Assay protocol: On the day of experiment, media was removed and loading buffer was added (30 μl/well) to the assay plate. The cells were incubated in the loading buffer for 30 minutes at 37° C. The loading buffer was then replaced by assay buffer (30 μl/well) followed by addition of test compounds or controls. The cells were incubated with compounds for 30 minutes and the plate was then mounted on FlexStation (Molecular Devices) for fluorescence read out with excitation and emission wavelengths at 488 and 525 nm, respectively. Each well was read for 90 sec at 2 sec interval and the stimulus buffer was added after 20 seconds of baseline recording. The final DMSO concentration was either 0.5 or 1% in the assay plate. Positive and negative controls were defined by addition of DMSO or 3 μM of a standard ROMK inhibitor, respectively, to the wells instead of a test compound.
A 10-point concentration response curve was used to estimate the IC50 value of test compounds.

hERG channels = hERG channels (Homo sapiens (Human), UniProt Q12809); experiment: hERG Manual Patch Clamp Assay; format: cell-based; settings: human, HEK 293 cells stably expressing hERG channels, pH 7.4, 1 uM, read-out: hERG EP % Inh @ 1 uM
Sequence of hERG channels (Q12809 whole entry): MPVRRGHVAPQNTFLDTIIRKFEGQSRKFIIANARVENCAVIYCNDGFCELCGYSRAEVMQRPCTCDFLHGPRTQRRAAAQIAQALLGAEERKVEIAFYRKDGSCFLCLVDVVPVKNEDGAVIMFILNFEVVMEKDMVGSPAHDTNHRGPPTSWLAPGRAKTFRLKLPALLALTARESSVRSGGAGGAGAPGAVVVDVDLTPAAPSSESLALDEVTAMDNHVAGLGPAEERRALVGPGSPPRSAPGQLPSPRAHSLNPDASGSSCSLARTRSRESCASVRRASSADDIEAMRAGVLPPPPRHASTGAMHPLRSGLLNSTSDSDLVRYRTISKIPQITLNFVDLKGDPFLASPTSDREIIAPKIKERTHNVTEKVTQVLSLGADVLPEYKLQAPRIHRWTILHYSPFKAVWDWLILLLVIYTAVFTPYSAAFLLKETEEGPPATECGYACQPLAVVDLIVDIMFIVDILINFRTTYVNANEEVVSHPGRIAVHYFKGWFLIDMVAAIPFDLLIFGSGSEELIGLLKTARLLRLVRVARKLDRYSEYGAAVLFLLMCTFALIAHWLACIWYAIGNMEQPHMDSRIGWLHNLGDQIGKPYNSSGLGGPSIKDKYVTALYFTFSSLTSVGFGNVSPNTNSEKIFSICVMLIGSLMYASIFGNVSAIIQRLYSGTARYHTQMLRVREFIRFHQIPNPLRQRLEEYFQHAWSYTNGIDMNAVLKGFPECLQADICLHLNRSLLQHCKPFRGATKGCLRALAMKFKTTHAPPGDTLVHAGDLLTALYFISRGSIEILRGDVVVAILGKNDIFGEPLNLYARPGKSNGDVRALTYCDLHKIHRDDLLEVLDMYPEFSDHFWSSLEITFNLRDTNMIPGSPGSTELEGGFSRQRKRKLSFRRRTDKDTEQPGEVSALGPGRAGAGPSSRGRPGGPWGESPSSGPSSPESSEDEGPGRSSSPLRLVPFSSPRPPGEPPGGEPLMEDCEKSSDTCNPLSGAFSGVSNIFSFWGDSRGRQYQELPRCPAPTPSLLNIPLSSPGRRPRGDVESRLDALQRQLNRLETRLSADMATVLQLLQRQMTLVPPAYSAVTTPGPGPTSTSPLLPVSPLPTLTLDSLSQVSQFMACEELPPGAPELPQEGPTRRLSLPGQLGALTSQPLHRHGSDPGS

Sequence of hROMK (human Kir1.1) (P48048 whole entry): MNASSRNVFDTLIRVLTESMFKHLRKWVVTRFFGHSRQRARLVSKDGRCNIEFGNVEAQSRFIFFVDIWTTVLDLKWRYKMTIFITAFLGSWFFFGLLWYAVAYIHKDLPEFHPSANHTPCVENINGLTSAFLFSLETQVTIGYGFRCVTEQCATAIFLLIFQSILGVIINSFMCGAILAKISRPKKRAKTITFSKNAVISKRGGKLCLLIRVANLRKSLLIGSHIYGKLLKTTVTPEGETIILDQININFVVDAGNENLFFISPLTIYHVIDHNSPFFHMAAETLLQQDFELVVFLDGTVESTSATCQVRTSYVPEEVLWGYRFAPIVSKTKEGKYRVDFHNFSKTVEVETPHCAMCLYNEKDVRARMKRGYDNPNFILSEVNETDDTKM

Row | Structure (SMILES) | IC50 (hROMK (human Kir1.1)) [nM] | inhibition at 1 µM (hERG channels) [%]
1 | Cc1c([C@@H]2CN(Cc3ccc(-n4cc(C#N)nn4)nc3)CCN2)ccc2c1COC2=O [Example 225-I, (R)-1-(5-((3-(4-methyl-1-oxo-1,3-dihydroisobenzofuran-5-yl)piperazin-1-yl)methyl)pyridin-2-yl)-1H-1,2,3-triazole-4-carbonitrile] | 19 | 39
2 | COc1cc(-n2cc(CCN3C[C@@H](c4ccc5c(c4C)COC5=O)N[C@@H](C)C3)cn2)ncc1C#N [Example 192-I, 4-methoxy-6-(4-(2-((3S,5R)-3-methyl-5-(4-methyl-1-oxo-1,3-dihydroisobenzofuran-5-yl)piperazin-1-yl)ethyl)-1H-pyrazol-1-yl)nicotinonitrile] | 16 | 46
3 | COc1nn(-c2ccc(CN3CCN[C@H](c4ccc5c(c4C)COC5=O)C3)cn2)cc1C#N [Example 223-I, (R)-3-methoxy-1-(5-((3-(4-methyl-1-oxo-1,3-dihydroisobenzofuran-5-yl)piperazin-1-yl)methyl)pyridin-2-yl)-1H-pyrazole-4-carbonitrile] | 18 | 56
4 | COc1cc(C#N)ccc1-n1cc(CN2CCO[C@H](c3ccc4c(c3C)COC4=O)C2)cn1 [Example 51-I, (R)-3-methoxy-4-(4-((2-(4-methyl-1-oxo-1,3-dihydroisobenzofuran-5-yl)morpholino)methyl)-1H-pyrazol-1-yl) benzonitrile] | 29 | 43
5 | Cc1cn(-c2ccc(CN3CCN[C@H](c4ccc5c(c4C)COC5=O)C3)cn2)nn1 [Example 222-I, (R)-4-methyl-5-(4-((6-(4-methyl-1H-1,2,3-triazol-1-yl)pyridin-3-yl)methyl)piperazin-2-yl)isobenzofuran-1(3H)-one] | 60 | 12
6 | Cc1c([C@@H]2CN(Cc3ccc(-n4cc(C#N)cn4)nc3)CCN2)ccc2c1COC2=O [Example 64-I, (R)-1-(5-((3-(4-methyl-1-oxo-1,3-dihydroiso-benzofuran-5-yl)piper-azin-1-yl)methyl)pyri-din-2-yl)-1H-pyrazole-4-carbonitrile] | 8.8 | 45
7 | Cc1nc(-n2cnc(CN3C[C@@H](c4ccc5c(c4C)COC5=O)N[C@@H](C)C3)c2)nc(C)c1C#N [Example 95-I, 4,6-dimethyl-2-(4-(((3S,5R)-3-methyl-5-(4-methyl-1-oxo-1,3-dihydroisobenzofur-an-5-yl)piperazin-1-yl)methyl)-1H-imidazol-1-yl)pyrimidine-5-carbonitrile] | 26 | 13
8 | Cc1cc(-n2cc(CN3CCN(C)[C@H](c4ccc5c(c4C)COC5=O)C3)cn2)ncc1C#N [Example 70-I, (R)-4-methyl-6-(4-((4-methyl-3-(4-methyl-1-oxo-1,3-dihydroisobenzo-furan-5-yl)piperazin-1-yl)methyl)-1H-pyra-zol-1-yl)nicotinonitrile] | 59 | 8.4
9 | Cc1cc(-n2cc(CN3CCCC(c4ccc5c(c4C)COC5=O)C3)cn2)ncc1C#N (single isomer, unassigned) [Example 197-I, 4-methyl-6-(4-((3-(4-methyl-1-oxo-1,3-dihydroisobenzofuran-5-yl)piperidin-1-yl)methyl)-1H-pyraozl-1-yl)nicotinonitrile] | 15 | 75
10 | COc1cc(N2CC(CN3C[C@@H](c4ccc5c(c4C)COC5=O)N[C@@H](C)C3)CC2=O)ncc1C#N (single isomer, unassigned) [Example 170-I] | 39 | 26
11 | COc1cc(-n2cc(CCN3CCO[C@H](c4ccc5c(c4C)COC5=O)C3)cn2)ncc1C#N [Example 11-I, (R)-4-methoxy-6-(4-(2-(2-(4-methyl-1-oxo-1,3-dihydroisobenzofuran-5-yl)morpholino)ethyl)-1H-pyrazol-1-yl)nicotinonitrile] | 30 | 40
12 | COc1cc(-n2cc(CN3C[C@@H](c4ccc5c(c4C)COC5=O)N[C@@H](C)C3)n(C)c2=O)ccn1 [Example 275-I, 1-(2-methoxypyridin-4-yl)-3-methyl-4-(((3S,5R)-3-methyl-5-(4-methyl-1-oxo-1,3-dihydroisobenzofuran-5-yl)piperazin-1-yl)methyl)-1,3-dihydro-2H-imidazol-2-one] | 42 | 8.4
13 | COc1ncnc(-n2cc(CN3C[C@@H](c4ccc5c(c4C)COC5=O)N[C@@H](C)C3)cn2)n1 [Example 194-I, 5-((2R,6S)-4-((1-(4-methoxy-1,3,5-triazin-2-yl)-1H-pyrazol-4-yl)methyl)-6-methylpiperazin-2-yl)-4-methylisobenzofuran-1(3H)-one] | 60 | 11
14 | Cc1cc(-c2nc(CN3C[C@@H](c4ccc5c(c4C)COC5=O)N[C@@H](C)C3)no2)ncc1C#N [Example 259-I, 4-methyl-6-(3-(((3S,5R)-3-methyl-5-(4-methyl-1-oxo-1,3-dihydroisobenzofuran-5-yl)piperazin-1-yl)methyl)-1,2,4-oxadiazol-5-yl)nicotinonitrile] | 53 | 8.6
15 | Cc1cc(-n2cc(CN3CC[C@@H](O)[C@H](c4ccc5c(c4C)COC5=O)C3)c(C(F)F)n2)ncc1C#N [Example 245-I, 6-(3-(difluoromethyl)-4-(((3R,4R)-4-hydroxy-3-(4-methyl-1-oxo-1,3-dihydroisobenzofuran-5-yl)piperidin-1-yl)methyl)-1H-pyrazol-1-yl)-4-methylnicotinonitrile] | 18 | 17
16 | Cc1cc(-n2cc(CN3CC(CO)CC(c4ccc5c(c4C)COC5=O)C3)cn2)ncc1C#N (single isomer, unassigned) [Example 261-II, 6-(4-((3-(hydroxymethyl)-5-(4-methyl-1-oxo-1,3-dihydroisobenzofuran-5-yl)piperidin-1-yl)methyl)-1H-pyrazol-1-yl)-4-methylnicotinonitrile] | 27 | 44
17 | COC1CC(c2ccc3c(c2C)COC3=O)CN(Cc2cnn(-c3cc(C)c(C#N)cn3)c2)C1 (single isomer, unassigned) [Example 200-II, 6-(4-((3-methoxy-5-(4-methyl-1-oxo-1,3-dihydroisobenzofuran-5-yl)piperidin-1-yl)methyl)-1H-pyrazol-1-yl)-4-methylnicotinonitrile] | 64 | 27
18 | Cc1cc(-n2cc(CN3CCN[C@H](c4ccc5c(c4)COC5=O)C3)cn2)ncc1C#N [Example 239-I, (R)-4-methyl-6-(4-((3-(1-oxo-1,3-dihydroisobenzofuran-5-yl)piperazin-1-yl)methyl)-1H-pyrazol-1-yl)nicotinonitrile] | 63 | 18
19 | Cc1nc(-n2ncc(CN3C[C@H](CO)N[C@H](c4ccc5c(c4C)COC5=O)C3)n2)ncc1C#N [Example 104-I, 2-(4-(((3R,5R)-3-(hydroxymethyl)-5-(4-methyl-1-oxo-1,3-dihydroisobenzofur-an-5-yl)piperazin-1-yl)methyl)-2H-1,2,3-triazol-2-yl)-4-methylpyrimidine-5-carbonitrile] | 36 | 3.4
20 | Cc1cc(-n2cc(CN3CC[C@@H](O)[C@H](c4ccc5c(c4C)COC5=O)C3)nn2)ncc1C#N [Example 84-I, 6-(4-(((3R,4R)-4-hydroxy-3-(4-methyl-1-oxo-1,3-dihydroisobenzofuran-5-yl)piperidin-1-yl)methyl)-1H-1,2,3-triazol-1-yl)-4-methylnicotinonitrile] | 52 | 6.7
21 | Cc1c([C@@H]2CN(Cc3cn(-c4ccc(C#N)cn4)cn3)CCO2)ccc2c1COC2=O [Example 28-I, (R)-6-(4-((2-(4-methyl-1-oxo-1,3-dihydroiso-benzofuran-5-yl)morpho-lino)methyl)-1H-imidazol-1-yl)nicotino-nitrile] | 85 | 15
22 | Cc1c([C@@H]2CN(Cc3ccc(-n4cc(C#N)c(OC(F)F)n4)nc3)CCN2)ccc2c1COC2=O [Example 219-I, (R)-3-(difluoromethoxy)-1-(5-((3-(4-methyl-1-oxo-1,3-dihydroisobenzofuran-5-yl)piperazin-1-yl)methyl)pyridin-2-yl)-1H-pyrazole-4-carbonitrile] | 21 | 75
23 | Cc1cc(N2CCOC2=O)cc(-n2cc(CN3C[C@@H](c4ccc5c(c4C)COC5=O)N[C@@H](C)C3)cn2)n1 [Example 251-I, 3-(2-methyl-6-(4-(((3S,5R)-3-methyl-5-(4-methyl-1-oxo-1,3-dihydroisobenzofuran-5-yl)piperazin-1-yl)methyl)-1H-pyrazol-1-yl)pyridin-4-yl)oxazolidin-2-one] | 61 | 7.6
24 | COc1cc(N2CC(CN3C[C@@H](c4ccc5c(c4C)COC5=O)N[C@@H](C)C3)N(C)C2=O)ncc1C#N (stereo partly drawn) [Example 274-I, 4-methoxy-6-(3-methyl-4-(((3S,5R)-3-methyl-5-(4-methyl-1-oxo-1,3-dihydroisobenzofuran-5-yl)piperazin-1-yl)methyl)-2-oxoimidazolidin-1-yl)nicotinonitrile] | 58 | 43
25 | COc1cc(-n2nnc(CN3CC[C@@H](O)[C@H](c4ccc5c(c4C)COC5=O)C3)n2)ccc1C#N [Example 272-I, 4-(5-(((3R,4R)-4-hydroxy-3-(4-methyl-1-oxo-1,3-dihydroisobenzofuran-5-yl)piperidin-1-yl)methyl)-2H-tetrazol-2-yl)-2-methoxybenzonitrile] | 65 | 5.2
26 | Cc1cc(-n2cnc(CN3C[C@@H](c4ccc5c(c4C)COC5=O)N[C@@H](C)C3)n2)ncc1C#N [Example 122-I, 4-methyl-6-(3-(((3S,5R)-3-methyl-5-(4-methyl-1-oxo-1,3-dihydroisobenzofuran-5-yl)piperazin-1-yl)methyl)-1H-1,2,4-triazol-1-yl)nicotinonitrile] | 50 | 6.6
